Columns and labels:
Assay in all cases: Agar dilution MIC
Settings in all cases: 35° C., 16-20 hours
S. aureus ATCC 29213 = type: cell-based, Staphylococcus aureus
Description: (§1) Briefly, the compounds of invention were weighed, dissolved in dimethyl sulfoxide, serially two fold diluted in the same solvent and then incorporated into molten Mueller Hinton Agar (MHA) in a petridish just before solidification, with each petridish containing a different concentration of a compound.
(§2) The bacterial inoculum was prepared by picking 3 to 5 well isolated bacterial colonies with the same morphological appearance from an 18-24 hours old culture with an inoculating loop, transferring the growth to a tube containing 3 mL of normal saline and adjusting the turbidity of the saline suspension to 0.5 Mc Farland Turbidity Standard equivalent to a bacterial population of 1.5×10^8 colony forming units (CFU) per mL of suspension. The suspension was diluted 1:10 in saline (i.e. 0.5 mL suspension 4.5 mL saline) to get a bacterial population of 1.5×10^7 CFU/mL as inoculum.
(§3) The inoculated petridishes were incubated at 35° C. in an ambient atmosphere for 16-20 hours.

S. aureus MRO 00055 = type: cell-based, Staphylococcus aureus
Description: as §1, §2, §3

S. aureus MRO 0001 = type: cell-based, Staphylococcus aureus
Description: as §1, §2, §3

S. aureus MRO 00048 = type: cell-based, Staphylococcus aureus
Description: as §1, §2, §3

S. aureus ATCC 43300 = type: cell-based, Staphylococcus aureus
Description: as §1, §2, §3

S. aureus MRO 00030 = type: cell-based, Staphylococcus aureus
Description: as §1, §2, §3

S. aureus MRO 00013 = type: cell-based, Staphylococcus aureus
Description: as §1, §2, §3

S. aureus MRO 0003 = type: cell-based, Staphylococcus aureus
Description: as §1, §2, §3

S. aureus MRO 00059 = type: cell-based, Staphylococcus aureus
Description: as §1, §2, §3

S. aureus MRO 002053 = type: cell-based, Staphylococcus aureus
Description: as §1, §2, §3

E. faecium ATCC 700221 = type: cell-based, Enterococcus faecium
Description: as §1, §2, §3

E. faecium MRO 04038 = type: cell-based, Enterococcus faecium
Description: as §1, §2, §3

E. faecium MRO 04198 = type: cell-based, Enterococcus faecium
Description: as §1, §2, §3

E. faecium MRO 04037 = type: cell-based, Enterococcus faecium
Description: as §1, §2, §3

[1] = tested on: M. catarrhalis ATCC 43617; type: cell-based, Moraxella catarrhalis
Description: as §1, §2, §3

[2] = tested on: M. catarrhalis ATCC 43628; type: cell-based, Moraxella catarrhalis
Description: as §1, §2, §3

[3] = tested on: M. catarrhalis ATCC 43627; type: cell-based, Moraxella catarrhalis
Description: as §1, §2, §3

E. faecalis ATCC 29212 = type: cell-based, Enterococcus faecalis
Description: as §1, §2, §3

E. faecalis MRO 04205 = type: cell-based, Enterococcus faecalis
Description: as §1, §2, §3

E. faecalis ATCC 51299 = type: cell-based, Enterococcus faecalis
Description: as §1, §2, §3

E. faecalis MRO 04050 = type: cell-based, Enterococcus faecalis
Description: as §1, §2, §3

E. faecalis MRO 04035 = type: cell-based, Enterococcus faecalis
Description: as §1, §2, §3

S. epidermidis MRO 02002 = type: cell-based
Description: as §1, §2, §3

[4] = tested on: S. epidermidis MRO 002046; type: cell-based
Description: as §1, §2, §3

[5] = tested on: S. haemolyticus MRO 02064; type: cell-based
Description: as §1, §2, §3

S. epidermidis MRO 02095 = type: cell-based
Description: as §1, §2, §3

[6] = tested on: S. saprophyticus MRO 02003; type: cell-based
Description: as §1, §2, §3

S. epidermidis MRO 02045 = type: cell-based
Description: as §1, §2, §3

Compound: COC(=S)NC[C@H]1CN(c2ccc(N3CCN(C(=O)C=Cc4ccc([N+](=O)[O-])o4)CC3)c(F)c2)C(=O)O1 [Example 40, (S)—O-Methyl(3-(3-fluoro-4-(4-(3-(5-nitrofuran-2-yl)acryloyl)piperazin-1-yl)phenyl)-2-oxooxazolidin-5-yl)methylcarbamothioate]
- Antimicrobial Screening (MIC) (S. aureus ATCC 29213): 0.25 µg/mL
- Antimicrobial Screening (MIC) (S. aureus MRO 00055): 0.25 µg/mL
- Antimicrobial Screening (MIC) (S. aureus MRO 0001): 0.25 µg/mL
- Antimicrobial Screening (MIC) (S. aureus MRO 00048): 0.25 µg/mL
- Antimicrobial Screening (MIC) (S. aureus ATCC 43300): 0.125 µg/mL
- Antimicrobial Screening (MIC) (S. aureus MRO 00030): 0.125 µg/mL
- Antimicrobial Screening (MIC) (S. aureus MRO 00013): 0.25 µg/mL
- Antimicrobial Screening (MIC) (S. aureus MRO 0003): 0.25 µg/mL
- Antimicrobial Screening (MIC) (S. aureus MRO 00059): 0.25 µg/mL
- Antimicrobial Screening (MIC) (S. aureus MRO 002053): 0.06 µg/mL
- Antimicrobial Screening (MIC) (E. faecium ATCC 700221): 0.125 µg/mL
- Antimicrobial Screening (MIC) (E. faecium MRO 04038): 0.25 µg/mL
- Antimicrobial Screening (MIC) (E. faecium MRO 04198): 0.25 µg/mL
- Antimicrobial Screening (MIC) (E. faecium MRO 04037): 0.25 µg/mL
- Antimicrobial Screening (MIC) [1]: 0.06 µg/mL
- Antimicrobial Screening (MIC) [2]: 0.125 µg/mL
- Antimicrobial Screening (MIC) [3]: 0.125 µg/mL
- Antimicrobial Screening (MIC) (E. faecalis ATCC 29212): 0.25 µg/mL
- Antimicrobial Screening (MIC) (E. faecalis MRO 04205): 0.25 µg/mL
- Antimicrobial Screening (MIC) (E. faecalis ATCC 51299): 0.25 µg/mL
- Antimicrobial Screening (MIC) (E. faecalis MRO 04050): 0.25 µg/mL
- Antimicrobial Screening (MIC) (E. faecalis MRO 04035): 0.25 µg/mL
- Antimicrobial Screening (MIC) (S. epidermidis MRO 02002): 0.125 µg/mL
- Antimicrobial Screening (MIC) [4]: <0.03 µg/mL
- Antimicrobial Screening (MIC) [5]: 0.125 µg/mL
- Antimicrobial Screening (MIC) (S. epidermidis MRO 02095): 0.06 µg/mL
- Antimicrobial Screening (MIC) [6]: 0.06 µg/mL
- Antimicrobial Screening (MIC) (S. epidermidis MRO 02045): <0.03 µg/mL

Compound: COC(=S)NC[C@H]1CN(c2ccc(N3CCN(C(=S)n4ccnc4)CC3)c(F)c2)C(=O)O1 [Example 76, (S)—O-Methyl(3-(4-(4-(1H-imidazole-1-carbonothioyl)piperazin-1-yl)-3-fluorophenyl)-2-oxooxazolidin-5-yl)methylcarbamothioate]
- Antimicrobial Screening (MIC) (S. aureus ATCC 29213): 0.5 µg/mL
- Antimicrobial Screening (MIC) (S. aureus MRO 00055): 0.5 µg/mL
- Antimicrobial Screening (MIC) (S. aureus MRO 0001): 0.5 µg/mL
- Antimicrobial Screening (MIC) (S. aureus MRO 00048): 0.25 µg/mL
- Antimicrobial Screening (MIC) (S. aureus ATCC 43300): 0.25 µg/mL
- Antimicrobial Screening (MIC) (S. aureus MRO 00030): 0.25 µg/mL
- Antimicrobial Screening (MIC) (S. aureus MRO 00013): 0.5 µg/mL
- Antimicrobial Screening (MIC) (S. aureus MRO 0003): 0.5 µg/mL
- Antimicrobial Screening (MIC) (S. aureus MRO 00059): 0.25 µg/mL
- Antimicrobial Screening (MIC) (S. aureus MRO 002053): 0.25 µg/mL
- Antimicrobial Screening (MIC) (E. faecium ATCC 700221): 0.25 µg/mL
- Antimicrobial Screening (MIC) (E. faecium MRO 04038): 0.25 µg/mL
- Antimicrobial Screening (MIC) (E. faecium MRO 04198): 0.25 µg/mL
- Antimicrobial Screening (MIC) (E. faecium MRO 04037): 0.25 µg/mL
- Antimicrobial Screening (MIC) [1]: 1 µg/mL
- Antimicrobial Screening (MIC) [2]: 1 µg/mL
- Antimicrobial Screening (MIC) [3]: 1 µg/mL
- Antimicrobial Screening (MIC) (E. faecalis ATCC 29212): 0.25 µg/mL
- Antimicrobial Screening (MIC) (E. faecalis MRO 04205): 0.25 µg/mL
- Antimicrobial Screening (MIC) (E. faecalis ATCC 51299): 0.25 µg/mL
- Antimicrobial Screening (MIC) (E. faecalis MRO 04050): 0.25 µg/mL
- Antimicrobial Screening (MIC) (E. faecalis MRO 04035): 0.25 µg/mL
- Antimicrobial Screening (MIC) (S. epidermidis MRO 02002): 0.25 µg/mL
- Antimicrobial Screening (MIC) [4]: 0.25 µg/mL
- Antimicrobial Screening (MIC) [5]: 0.25 µg/mL
- Antimicrobial Screening (MIC) (S. epidermidis MRO 02095): 0.25 µg/mL
- Antimicrobial Screening (MIC) [6]: 0.5 µg/mL
- Antimicrobial Screening (MIC) (S. epidermidis MRO 02045): 0.25 µg/mL

Source: patent publication US20100234390A1, “NOVEL COMPOUND AND THEIR USE” (priority 2007, published 2010)
